From patent US8435562B2 (XenoPort, Inc., priority 2009, dated 2013) come the findings set out here.

The nature of this data set: Powder X-ray diffraction analysis of anhydrous-to-hydrate form conversion (granules, tablets). It counts as physicochemical. As to the method: Anhydrous (2R)-2-phenylcarbonyloxypropyl (2S)-2-amino-3-(3,4-dihydroxyphenyl)propanoate mesylate (138.6 g) and hydroxypropylmethyl cellulose (1.4 g) (Methocer HPMC E4M, Dow Chemical) were weighed and sieved through an 18-mesh screen. The screened materials were placed into a high shear wet granulator (KG-5 high sheer blender, 5 L bowl, Key International) and pre-blended for 2 min. […] The material was blended for ca. 10-20 min at an impeller speed of 250 rpm and a chopper speed of 2,000 rpm, and a water spray rate of 2 g/min. After granulation the wet granules were milled through a 16-mesh screen with a brush. The milled wet granules were placed in a dryer (UniGlatt Fluid Bed Dryer, Glatt GmbH) and dried for 24 min at an inlet temperature of 65° C. with airflow adjusted at 8-10 SCFM. The dried granules were milled by manually pressing the granules through a screen.
Powder X-ray diffraction (PXRD) analysis was performed using a PANalytical X′Pert Pro X-ray diffractometer. The X-ray source was Cu kα1 with output voltage of 45 kV and current of 40 mA. The instrument employed para-focusing Bragg-Brentano geometry with incident divergence and scattering slits set at 1/16° and ⅛°, respectively. Soller slits with a 0.04-mm radius were used for both the incident and diffracted beams to remove axial divergence. Powder samples (9-12 mg) were gently pressed onto a single crystal silicon sample holder to form a smooth surface, and samples were spun at 8 sec/revolution throughout the data acquisition process. The samples were scanned from 2° to 40°(2θ°) with a step size of 0.017° (2θ angle) and a scan speed of 0.067°/sec. Data acquisition was controlled and analyzed with X′Pert Data Collector Software (version 2.2d) and X′Pert Data Viewer (version 1.2c), respectively.

Take `CS(=O)(=O)O.C[C@H](COC(=O)[C@@H](N)Cc1ccc(O)c(O)c1)OC(=O)c1ccccc1` [compound 1, (2R)-2-Phenylcarbonyloxypropyl (2S)-2-amino-3-(3,4-dihydroxyphenyl)propanoate mesylate]: the “Crystal form by PXRD after high shear wet granulation” value is “did not transform to the hydrate” (with 1% sodium lauryl sulfate); “a combination of the anhydrous and hydrated forms” (without sodium lauryl sulfate, 7 wt-% water); “predominantly crystalline (2R)-2-phenylcarbonyloxypropyl (2S)-2-amino-3-(3,4-dihydroxyphenyl)propanoate mesylate, hydrate” (without sodium lauryl sulfate, 15 wt-% water); “characteristic of the hydrated form” (without sodium lauryl sulfate, water content of 9 wt-% and 15 wt-% (FIG. 3 patterns B and C)).
